Test results from US11753445B2, “Therapeutic peptides” (COHBAR, INC., priority 2016, dated 2023).

Assays:
Human Primary Adipocytes = assay: Free fatty acid levels in cultured human primary adipocytes, isoproterenol stimulated (Example 4); assay type: cell-based; conditions: isoproterenol 1 nM; for Free Fatty Acid Levels in Human Primary Adipocytes Expressed as a Percent of Isoproterenol Control: Percent of Control Value: test peptides 25 μM
Description: Human primary adipocytes were seeded at 5,000-100,000 cells per well on 96-well, 48-well, or 24-well plates in Pre-adipocyte Medium (Zen-Bio, Durham, N.C.) and grown to confluence at 37° C. in a humidified atmosphere of 5% CO2/95% air. Two days after confluence, cells were placed in Adipocyte Differentiation Medium (Zen-Bio, Durham, N.C.) and cultured for three additional days at 37° C. in a humidified atmosphere of 5% CO2/95% air. The culture media was then replaced with Adipocyte Maintenance Medium (Zen-Bio) and the cells were maintained for an additional 11-21 days at 37° C. in a humidified atmosphere of 5% CO2/95% air with partial medium replacement every other day. Following 14-24 days of differentiation, test peptides were added at a final concentration of 25 μM and incubated for 18-20 hours in Adipocyte Maintenance Medium at 37° C. in a humidified atmosphere of 5% CO2/95%. After 18-20 hours, the media was exchanged with fresh Adipocyte Maintenance Medium containing test peptides and incubated for 1 h at 37° C. in a humidified atmosphere of 5% CO2/95%. After 1 h media was exchanged with Assay Buffer (Zen-Bio) containing isoproterenol (1 nM) (added to all samples except untreated controls) and test peptides. Cells were incubated for a further 3 hours at 37° C. in a humidified atmosphere of 5% CO2/95%. Free fatty acid concentrations in the media were determined using a Free Fatty Acid Assay Kit (Zen-Bio) according to the manufacturer's instructions using a plate reader (540 nm). Absorbance values were corrected for untreated background and expressed relative to isoproterenol treated cells. Treatment with isoproterenol (1 nM) alone was used as the free fatty acid level stimulatory control. The relative standard deviation of the isoproterenol control was <14%. […] Free fatty acid levels for insulin (100 nM) treatment were <5% of the isoproterenol control value.

[1] = system: Diet Induced Obese (DIO) mice; assay: Body weight, blood glucose and fat mass in Diet Induced Obese mice, 10 days (Example 6); assay type: in vivo, Male C57BL/6 mice; conditions: male DIO mice; 10 days twice daily intraperitoneal 15 mg/kg; N = 8; mean
Summary of the method: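 Male DIO mice (n=8/group), randomized by blood glucose and body weight, dosed 15 mg/kg/dose once or twice daily s.c. or i.p. for 10 days vs vehicle. Body weight, blood glucose and food intake monitored; fat vs lean mass by quantitative whole-body NMR before and after dosing.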

[2] = Stability in mouse plasma, peptides 100 uM (Example 14); assay type: in vitro ADME; conditions: mouse plasma 37° C., peptide 100 uM; for remaining at 0.25 h, 100 uM / remaining at 0.5 h, 100 uM / remaining at 1 h, 100 uM / remaining at 2 h, 100 uM / remaining at 3 h, 100 uM: pooled mouse plasma; for remaining at 0.25 h, 100 uM: 15 min, read-out: % Remaining at Each Time Point: 15 min; for remaining at 0.5 h, 100 uM: 30 min, read-out: % Remaining at Each Time Point: 30 min; for remaining at 1 h, 100 uM: 60 min, read-out: % Remaining at Each Time Point: 60 min; for remaining at 2 h, 100 uM: 120 min, read-out: % Remaining at Each Time Point: 120 min; for remaining at 3 h, 100 uM: 180 min, read-out: % Remaining at Each Time Point: 180 min
Description: (§1) Peptides (100 uM) were incubated in pooled mouse plasma at 37° C. and samples were removed and immediately analyzed for the concentration of intact peptide by LC/MS/MS over the course of 3 hours. The percent of peptide remaining in plasma at each time point was calculated relative to the initial peak area (Table 12).

[3] = Stability in mouse plasma, peptides 10 uM (Example 15); assay type: in vitro ADME; conditions: mouse plasma 37° C., peptide 10 uM; for remaining at 0.25 h, 10 uM / remaining at 0.5 h, 10 uM / remaining at 1 h, 10 uM / remaining at 2 h, 10 uM / remaining at 3 h, 10 uM: pooled mouse plasma; for remaining at 0.25 h, 10 uM: 15 min, read-out: % Remaining at Each Time Point: 15 min; for remaining at 0.5 h, 10 uM: 30 min, read-out: % Remaining at Each Time Point: 30 min; for remaining at 1 h, 10 uM: 60 min, read-out: % Remaining at Each Time Point: 60 min; for remaining at 2 h, 10 uM: 120 min, read-out: % Remaining at Each Time Point: 120 min; for remaining at 3 h, 10 uM: 180 min, read-out: % Remaining at Each Time Point: 180 min
Description: as §1, with “(10” for “(100”, “13).” for “12).”

[4] = Stability in monkey plasma (Example 16); assay type: in vitro ADME; conditions: Monkey plasma 37° C., peptide 10 uM; for remaining at 1 h, 10 uM: 60 min, read-out: % Remaining at Each Time Point: 60 min; for remaining at 2 h, 10 uM: 120 min, read-out: % Remaining at Each Time Point: 120 min; for remaining at 3 h, 10 uM: 180 min, read-out: % Remaining at Each Time Point: 180 min
[5] = Stability in human plasma (Example 16); assay type: in vitro ADME; conditions: Human plasma 37° C., peptide 10 uM; for remaining at 1 h, 10 uM / remaining at 2 h, 10 uM / remaining at 3 h, 10 uM: pooled human plasma; for remaining at 1 h, 10 uM: 60 min, read-out: % Remaining at Each Time Point: 60 min; for remaining at 2 h, 10 uM: 120 min, read-out: % Remaining at Each Time Point: 120 min; for remaining at 3 h, 10 uM: 180 min, read-out: % Remaining at Each Time Point: 180 min
Description: as §1, with “(10” for “(100”, “mouse or human” for “mouse”, “14).” for “12).”

3T3-L1 Adipocytes = assay: Free fatty acid levels in cultured mouse 3T3-L1 adipocytes, isoproterenol stimulated (Example 17); assay type: cell-based; conditions: insulin 100 nM; 3T3-L1 adipocytes; isoproterenol 1 nM
Description: Mouse 3T3-L1 cells were seeded at a density between 1,000-20,000 cells per well on 96-well, 48-well, or 24-well plates in Pre-adipocyte Medium (Zen-Bio, Durham, N.C.) and grown to confluence at 37° C. in a humidified atmosphere of 5% CO2/95% air. Two days after confluence, cells were placed in Adipocyte Differentiation Medium (Zen-Bio, Durham, N.C.) and cultured for three additional days at 37° C. in a humidified atmosphere of 5% CO2/95% air. The culture media was then replaced with Adipocyte Maintenance Medium (Zen-Bio) and the cells were maintained for an additional 9-14 days at 37° C. in a humidified atmosphere of 5% CO2/95% air with partial medium replacement every other day. Following 12-17 days of differentiation, test peptides were added at a final concentration of 25-50 μM and incubated for 18-20 hours in Adipocyte Maintenance Medium at 37° C. in a humidified atmosphere of 5% CO2/95%. After the media incubation, media was removed and exchanged with Assay Buffer (Zen-Bio) containing isoproterenol (1 nM) (added to all samples except untreated controls) and the test peptides. Cells were incubated for a further 3 hours at 37° C. in a humidified atmosphere of 5% CO2/95%. Free fatty acid concentrations in the media were determined using a Free Fatty Acid Assay Kit (Zen-Bio) according to the manufacturer's instructions using a plate reader (540 nm).
Absorbance values were corrected for untreated background and expressed relative to isoproterenol treated cells. Treatment with isoproterenol (1 nM) alone was used as the free fatty acid level stimulatory control. The relative standard deviation of the isoproterenol control was <10%. […] Free fatty acid levels for insulin (100 nM) treatment were <5% of the isoproterenol control value.

Row | Substance | % Remaining at Each Time Point: 0 min [2] [%] | remaining at 0.25 h, 100 uM [2] [%] | remaining at 0.5 h, 100 uM [2] [%] | remaining at 1 h, 100 uM [2] [%] | remaining at 2 h, 100 uM [2] [%] | remaining at 3 h, 100 uM [2] [%] | % Remaining at Each Time Point: 0 min [3] [%] | remaining at 0.25 h, 10 uM [3] [%] | remaining at 0.5 h, 10 uM [3] [%] | remaining at 1 h, 10 uM [3] [%] | remaining at 2 h, 10 uM [3] [%] | remaining at 3 h, 10 uM [3] [%] | Free Fatty Acid Levels in Human Primary Adipocytes Expressed as a Percent of Isoproterenol Control: Percent of Control Value (Human Primary Adipocytes) [%] | Difference from Vehicle Control: Decrease from Baseline in Blood Glucose [1] [mg/dL] | Difference from Vehicle Control: Decrease from Baseline in Body Weight (%) [1] [%] | Difference from Vehicle Control: Decrease from Baseline in Fat Mass [1] [g] | further results
1 | H-MRWQEMGYIFYPRNLR-OH [compound 213] | 100 | 41 | 29.4 | 20.5 | 10 | 7.45 |  |  |  |  |  |  | 103 | -20.1 | −4.21 | -1.16 | 
2 | H-MRWQEMQYIFYPRALR-OH [compound 219] | 100 | 44.5 | 40.9 | 41.3 | 19.8 | 12.2 |  |  |  |  |  |  | 69.4 | -17.3 | −4.09 | -1.37 | 
3 | H-MRWQEMGYIFYPRKLR-OH [compound 2] | 100 | 32 | 14.8 | 7.58 | 4.78 | 1.21 | 100 | 78.3 | 38.9 | 9.6 | 0.8 | 0.4 | 107 | -4.88 | −0.58 | -0.24 | % Remaining at Each Time Point: 0 min [4]: 100%; remaining at 1 h, 10 uM [4]: 72.8%; remaining at 2 h, 10 uM [4]: 39.8%; remaining at 3 h, 10 uM [4]: 23.4%; % Remaining at Each Time Point: 0 min [5]: 100%; remaining at 1 h, 10 uM [5]: 56.3%; remaining at 2 h, 10 uM [5]: 44.7%; remaining at 3 h, 10 uM [5]: 38.4%
4 | Insulin [reference compound] |  |  |  |  |  |  |  |  |  |  |  |  |  |  |  |  | Free fatty acid levels, % of the isoproterenol control value (Human Primary Adipocytes; insulin 100 nM, human primary adipocytes): < 5%; Free fatty acid levels, % of the isoproterenol control value (3T3-L1 Adipocytes): < 5%

Now from value to substance, other results behind:

Row | % Remaining at Each Time Point: 0 min [2] [%] | remaining at 0.25 h, 100 uM [2] [%] | remaining at 0.5 h, 100 uM [2] [%] | remaining at 1 h, 100 uM [2] [%] | remaining at 2 h, 100 uM [2] [%] | remaining at 3 h, 100 uM [2] [%] | % Remaining at Each Time Point: 0 min [3] [%] | remaining at 0.25 h, 10 uM [3] [%] | remaining at 0.5 h, 10 uM [3] [%] | remaining at 1 h, 10 uM [3] [%] | remaining at 2 h, 10 uM [3] [%] | remaining at 3 h, 10 uM [3] [%] | Substance | Free Fatty Acid Levels in Human Primary Adipocytes Expressed as a Percent of Isoproterenol Control: Percent of Control Value (Human Primary Adipocytes) [%] | Difference from Vehicle Control: Decrease from Baseline in Blood Glucose [1] [mg/dL] | Difference from Vehicle Control: Decrease from Baseline in Body Weight (%) [1] [%] | Difference from Vehicle Control: Decrease from Baseline in Fat Mass [1] [g] | further results
5 |  |  |  |  |  |  | 100 | 85.2 | 72.8 | 52.3 | 30.3 | 17.9 | H-RWQEMQYIFYPR-OH [compound 211] | 79.9 | -2.25 | −1.04 | -0.43 | 
6 | 100 | 63.3 | 53.1 | 48.9 | 45.3 | 47.7 | 100 | 77 | 51.8 | 21 | 3.94 | 1.09 | H-MRWQEMNYIFYPR-OH [compound 208] | 70.9 | -11.5 | −5.05 | -1.87 | % Remaining at Each Time Point: 0 min [4]: 100%; remaining at 1 h, 10 uM [4]: 106%; remaining at 2 h, 10 uM [4]: 89%; remaining at 3 h, 10 uM [4]: 68%; % Remaining at Each Time Point: 0 min [5]: 100%; remaining at 1 h, 10 uM [5]: 105%; remaining at 2 h, 10 uM [5]: 86.6%; remaining at 3 h, 10 uM [5]: 85.4%
7 | 100 | 29.9 | 31 | 21.5 | 6.41 | 2.13 |  |  |  |  |  |  | H-MRWQEMGYIFYPRKLA-OH [compound 21] | 88.9 | -4.21 | −3.00 | -2.03 | 
